Test results as given in patent US20260240858A1, “ORAL FORMULATIONS, METHODS OF MANUFACTURE AND USES THEREOF” (Agency For Science, Technology And Research, priority 2019, published 2026).
Where two headings read alike, the source gives them in different places.

Legend:
[1] = Particle size by dynamic light scattering; type: physicochemical
[2] = Permeability of compound of Formula (I)
[3] = Degradation in water with and without SLS; type: physicochemical; details: after 24 h at 25° C.
[4] = Solubility of compound of Formula (I) in water, buffers and surfactant solutions; type: physicochemical
Description: In water, compound of Formula (I) has a solubility of about 6 μg/mL. At pH 6, the solubility is about 5 μg/mL.

[5] = Flow properties (bulk density, tapped density, Carr's index); type: physicochemical; details: API alone
Text: Magnesium stearate was included to prevent sticking of the blend to the encapsulator contact parts (Torpac).

Moisture sorption = type: physicochemical; details: at above 90% RH

## Cn1c(=O)c2c(ncn2CC(=O)Nc2ccc(-c3ccccc3)nn2)n(C)c1=O [compound of Formula (I)]
[1]
  d10: 2-5 μm
  d50: 10-30 μm
  d90: 35-55 μm
[2]
  permeability: low
[3]; In water
  degradation: about 40%
[3]; water with 2% w/v SLS
  degradation: no (or minimal) degradation
[4]; 2% w/v SLS in water, pH 8.82, aqueous with cosolvent or surfactant or cyclodextrin, thermodynamic from solid, 2% w/v SLS is water, pH after equilibration 8.82, read-out: Solubility Sample-1
  solubility: 458 µg/mL
[4]; 2% w/v SLS in water, pH 8.82, aqueous with cosolvent or surfactant or cyclodextrin, thermodynamic from solid, 2% w/v SLS is water, pH after equilibration 8.82, read-out: Solubility Sample-2
  solubility: 429 µg/mL
[4]; 2% w/v Tween 80 in pH 3.0 buffer, pH 3, aqueous with cosolvent or surfactant or cyclodextrin, thermodynamic from solid, 2% w/v Tween 80 in pH 3.0 buffer, pH after equilibration 3.16, read-out: Solubility Average (n = 2)
  solubility: 25.2 µg/mL
[4]; 2% w/v Tween 80 in pH 3.0 buffer, pH 3, aqueous with cosolvent or surfactant or cyclodextrin, thermodynamic from solid, 2% w/v Tween 80 in pH 3.0 buffer, pH after equilibration 3.16, read-out: Solubility Sample-1
  solubility: 23.8 µg/mL
[4]; 2% w/v Tween 80 in pH 3.0 buffer, pH 3, aqueous with cosolvent or surfactant or cyclodextrin, thermodynamic from solid, 2% w/v Tween 80 in pH 3.0 buffer, pH after equilibration 3.16, read-out: Solubility Sample-2
  solubility: 26.7 µg/mL
[4]; 2% w/v Tween 80 in water, pH 7.72, aqueous with cosolvent or surfactant or cyclodextrin, thermodynamic from solid, 2% w/v Tween 80 in water, pH after equilibration 7.72, read-out: Solubility Average (n = 2)
  solubility: 22.8 µg/mL
[4]; 2% w/v Tween 80 in water, pH 7.72, aqueous with cosolvent or surfactant or cyclodextrin, thermodynamic from solid, 2% w/v Tween 80 in water, pH after equilibration 7.72, read-out: Solubility Sample-1
  solubility: 22.4 µg/mL
[4]; 2% w/v Tween 80 in water, pH 7.72, aqueous with cosolvent or surfactant or cyclodextrin, thermodynamic from solid, 2% w/v Tween 80 in water, pH after equilibration 7.72, read-out: Solubility Sample-2
  solubility: 23.2 µg/mL
[4]; 5% w/v PVP K 30 in pH 1.2 buffer, pH 1.2, aqueous with cosolvent or surfactant or cyclodextrin, thermodynamic from solid, 5% w/v PVP K 30 in pH 1.2 buffer, pH after equilibration 1.25, read-out: Solubility Average (n = 2)
  solubility: 35 µg/mL
[4]; 5% w/v PVP K 30 in pH 1.2 buffer, pH 1.2, aqueous with cosolvent or surfactant or cyclodextrin, thermodynamic from solid, 5% w/v PVP K 30 in pH 1.2 buffer, pH after equilibration 1.25, read-out: Solubility Sample-1
  solubility: 34.8 µg/mL
[4]; 5% w/v PVP K 30 in pH 1.2 buffer, pH 1.2, aqueous with cosolvent or surfactant or cyclodextrin, thermodynamic from solid, 5% w/v PVP K 30 in pH 1.2 buffer, pH after equilibration 1.25, read-out: Solubility Sample-2
  solubility: 35.2 µg/mL
[4]; 5% w/v PVP K 30 in pH 3.0 buffer, pH 3, aqueous with cosolvent or surfactant or cyclodextrin, thermodynamic from solid, 5% w/v PVP K 30 in pH 3.0 buffer, pH after equilibration 3.12, read-out: Solubility Average (n = 2)
  solubility: 17.9 µg/mL
[4]; 5% w/v PVP K 30 in pH 3.0 buffer, pH 3, aqueous with cosolvent or surfactant or cyclodextrin, thermodynamic from solid, 5% w/v PVP K 30 in pH 3.0 buffer, pH after equilibration 3.12, read-out: Solubility Sample-1
  solubility: 19.9 µg/mL
[4]; 5% w/v PVP K 30 in pH 3.0 buffer, pH 3, aqueous with cosolvent or surfactant or cyclodextrin, thermodynamic from solid, 5% w/v PVP K 30 in pH 3.0 buffer, pH after equilibration 3.12, read-out: Solubility Sample-2
  solubility: 15.8 µg/mL
[4]; 5% w/v PVP K 30 in water, pH 3.96, aqueous with cosolvent or surfactant or cyclodextrin, thermodynamic from solid, 5% w/v PVP K 30 in water, pH after equilibration 3.96, read-out: Solubility Average (n = 2)
  solubility: 15.8 µg/mL
[4]; 5% w/v PVP K 30 in water, pH 3.96, aqueous with cosolvent or surfactant or cyclodextrin, thermodynamic from solid, 5% w/v PVP K 30 in water, pH after equilibration 3.96, read-out: Solubility Sample-1
  solubility: 18.1 µg/mL
[4]; 5% w/v PVP K 30 in water, pH 3.96, aqueous with cosolvent or surfactant or cyclodextrin, thermodynamic from solid, 5% w/v PVP K 30 in water, pH after equilibration 3.96, read-out: Solubility Sample-2
  solubility: 13.5 µg/mL
[4]; 20% w/v SLS in pH 1.2 buffer, pH 1.2, aqueous with cosolvent or surfactant or cyclodextrin, thermodynamic from solid, 20% w/v SLSixpB 1.2 buffer, pH after equilibration 1.33, read-out: Solubility Average (n = 2)
  solubility: 2020 µg/mL
[4]; 20% w/v SLS in pH 1.2 buffer, pH 1.2, aqueous with cosolvent or surfactant or cyclodextrin, thermodynamic from solid, 20% w/v SLSixpB 1.2 buffer, pH after equilibration 1.33, read-out: Solubility Sample-1
  solubility: 1860 µg/mL
[4]; 20% w/v SLS in pH 1.2 buffer, pH 1.2, aqueous with cosolvent or surfactant or cyclodextrin, thermodynamic from solid, 20% w/v SLSixpB 1.2 buffer, pH after equilibration 1.33, read-out: Solubility Sample-2
  solubility: 2170 µg/mL
[4]; 28% w/v SLS in pH 3.0 buffer, pH 3, aqueous with cosolvent or surfactant or cyclodextrin, thermodynamic from solid, 28% w/v SL.S in pH 3.0 baffer, pH after equilibration 2.95, read-out: Solubility Average (n = 2)
  solubility: 404 µg/mL
[4]; 28% w/v SLS in pH 3.0 buffer, pH 3, aqueous with cosolvent or surfactant or cyclodextrin, thermodynamic from solid, 28% w/v SL.S in pH 3.0 baffer, pH after equilibration 2.95, read-out: Solubility Sample-1
  solubility: 394 µg/mL
[4]; 28% w/v SLS in pH 3.0 buffer, pH 3, aqueous with cosolvent or surfactant or cyclodextrin, thermodynamic from solid, 28% w/v SL.S in pH 3.0 baffer, pH after equilibration 2.95, read-out: Solubility Sample-2
  solubility: 415 µg/mL
[4]; 29% w/v Tween 80 in pH 1.2 buffer, pH 1.2, aqueous with cosolvent or surfactant or cyclodextrin, thermodynamic from solid, 29% w/v Tween 80 in pH 1.2 buffer, pH after equilibration 1.25, read-out: Solubility Average (n = 2)
  solubility: 37.2 µg/mL
[4]; 29% w/v Tween 80 in pH 1.2 buffer, pH 1.2, aqueous with cosolvent or surfactant or cyclodextrin, thermodynamic from solid, 29% w/v Tween 80 in pH 1.2 buffer, pH after equilibration 1.25, read-out: Solubility Sample-1
  solubility: 37.3 µg/mL
[4]; 29% w/v Tween 80 in pH 1.2 buffer, pH 1.2, aqueous with cosolvent or surfactant or cyclodextrin, thermodynamic from solid, 29% w/v Tween 80 in pH 1.2 buffer, pH after equilibration 1.25, read-out: Solubility Sample-2
  solubility: 37.1 µg/mL
[4]; 50% w/v Poloxamer 188 in pH 1.2 buffer, pH 1.2, aqueous with cosolvent or surfactant or cyclodextrin, thermodynamic from solid, 50% w/v Poloxamer 188 in pH 1.2 buffer, pH after equilibration 1.25, read-out: Solubility Average (n = 2)
  solubility: 35.5 µg/mL
[4]; 50% w/v Poloxamer 188 in pH 1.2 buffer, pH 1.2, aqueous with cosolvent or surfactant or cyclodextrin, thermodynamic from solid, 50% w/v Poloxamer 188 in pH 1.2 buffer, pH after equilibration 1.25, read-out: Solubility Sample-1
  solubility: 35.6 µg/mL
[4]; 50% w/v Poloxamer 188 in pH 1.2 buffer, pH 1.2, aqueous with cosolvent or surfactant or cyclodextrin, thermodynamic from solid, 50% w/v Poloxamer 188 in pH 1.2 buffer, pH after equilibration 1.25, read-out: Solubility Sample-2
  solubility: 35.4 µg/mL
[4]; 50% w/v Poloxamer 188 in water, pH 7.23, aqueous with cosolvent or surfactant or cyclodextrin, thermodynamic from solid, 50% w/v Poloxamer 188 in water, pH after equilibration 7.23, read-out: Solubility Average (n = 2)
  solubility: 9.63 µg/mL
[4]; 50% w/v Poloxamer 188 in water, pH 7.23, aqueous with cosolvent or surfactant or cyclodextrin, thermodynamic from solid, 50% w/v Poloxamer 188 in water, pH after equilibration 7.23, read-out: Solubility Sample-1
  solubility: 10.9 µg/mL
[4]; 50% w/v Poloxamer 188 in water, pH 7.23, aqueous with cosolvent or surfactant or cyclodextrin, thermodynamic from solid, 50% w/v Poloxamer 188 in water, pH after equilibration 7.23, read-out: Solubility Sample-2
  solubility: 8.39 µg/mL
[4]; 59% w/v Poloxamer 188 in pH 3.0 buffer, pH 3, aqueous with cosolvent or surfactant or cyclodextrin, thermodynamic from solid, 59% w/v Poloxamer 188 in pH 3.0 buffer, pH after equilibration 3.30, read-out: Solubility Average (n = 2)
  solubility: 18.3 µg/mL
[4]; 59% w/v Poloxamer 188 in pH 3.0 buffer, pH 3, aqueous with cosolvent or surfactant or cyclodextrin, thermodynamic from solid, 59% w/v Poloxamer 188 in pH 3.0 buffer, pH after equilibration 3.30, read-out: Solubility Sample-1
  solubility: 18.7 µg/mL
[4]; 59% w/v Poloxamer 188 in pH 3.0 buffer, pH 3, aqueous with cosolvent or surfactant or cyclodextrin, thermodynamic from solid, 59% w/v Poloxamer 188 in pH 3.0 buffer, pH after equilibration 3.30, read-out: Solubility Sample-2
  solubility: 17.9 µg/mL
[4]; citrate buffer, pH 3, aqueous buffer, thermodynamic from solid, pH 3.0 (Citrate buffer), read-out: Solubility Average (n = 2)
  solubility: 7.77 µg/mL
[4]; citrate buffer, pH 3, aqueous buffer, thermodynamic from solid, pH 3.0 (Citrate buffer), read-out: Solubility Sample-1
  solubility: 7.76 µg/mL
[4]; citrate buffer, pH 3, aqueous buffer, thermodynamic from solid, pH 3.0 (Citrate buffer), read-out: Solubility Sample-2
  solubility: 7.78 µg/mL
[4]; hydrochloric acid buffer, pH 1.2, simulated gastric fluid, thermodynamic from solid, pH 1.2 (Hydrochloric acid buffer), read-out: Solubility Average (n = 2)
  solubility: 20.8 µg/mL
[4]; hydrochloric acid buffer, pH 1.2, simulated gastric fluid, thermodynamic from solid, pH 1.2 (Hydrochloric acid buffer), read-out: Solubility Sample-1
  solubility: 20.8 µg/mL
[4]; hydrochloric acid buffer, pH 1.2, simulated gastric fluid, thermodynamic from solid, pH 1.2 (Hydrochloric acid buffer), read-out: Solubility Sample-2
  solubility: 20.9 µg/mL
[4]; pH 2, simulated gastric fluid, At pH 2, read-out: solubility
  solubility: ~8.4 µg/mL
[4]; pH 4, aqueous buffer, At pH 4, read-out: solubility
  solubility: ~6.4 µg/mL
[4]; pH 6, aqueous buffer, At pH 6, read-out: solubility
  solubility: ~5 µg/mL
[4]; water, In water, read-out: solubility
  solubility: ~6 µg/mL
[4]; water, in water, read-out: solubility
  solubility: < 6 µg/mL
[4]; water, pH 7.95, water, thermodynamic from solid, Water, pH after equilibration 7.95, read-out: Solubility Average (n = 2)
  solubility: 5.99 µg/mL
[4]; water, pH 7.95, water, thermodynamic from solid, Water, pH after equilibration 7.95, read-out: Solubility Sample-1
  solubility: 6 µg/mL
[4]; water, pH 7.95, water, thermodynamic from solid, Water, pH after equilibration 7.95, read-out: Solubility Sample-2
  solubility: 5.97 µg/mL
[5]
  flow properties of the API: poor flow properties
Moisture sorption
  water uptake: about 1%
